Assays:
[1] = biological target: T1, human β1 integrin (Homo sapiens, UniProt P05556); test: Flow cytometry of integrin activity with 12G10 antibody on K562 cells; assay type: cell-based; conditions: 1 mM Mn^2+ rather than 1 mM Ca^2+, 0.5 mM Mg^2+
T1 construct: endogenous in cells; host or cells: K562 human lymphocytes
Description: For analysis of integrin activity by flow cytometry, K562 suspension cells were stimulated with ultrasound for 20 minutes, followed by centrifugation and re-suspension in ice cold media. Cells were stained with primary antibody (12G10), diluted to 10 μg/ml in Dulbecco's PBS containing calcium and magnesium (Lonza), 0.02% (w/v) sodium azide on ice for 1 hour. The cells were washed with PBS, 1% (v/v) fetal bovine serum, followed by 10 μg/ml secondary antibody diluted in PBS, 10% (v/v) fetal bovine serum for 30 minutes. For manganese stimulation all antibodies and wash buffers were supplemented with 1 mM MnCl2. Cells were then fixed with 2% (w/v) paraformaldehyde, and analysed on a Dako Cyan flow cytometer, using an excitation wavelength of 488 nm. A 530/30 nm bandpass filter was used to detect the emissions.

[2] = tested on: MEFs; test: Adhesion complex (focal adhesion) formation assay, vinculin/actin immunofluorescence; assay type: cell-based, mouse; conditions: 200 nM BIM; MEFs prespread on 50K
Description: (§1) For immunofluorescence, 13-mm diameter glass coverslips, placed into 6-well plates, were derivatized for 30 minutes with 1 mM sulpho-m-maleimidobenzoyl-N-hydrosuccinimide ester (Perbio). For spreading on mab13 monoclonal antibody, coverslips were pre-coated with 10 μg/ml goat anti-Rat IgG FC fragment (Jackson, Stratech Scientific). For biochemical assays, 6-well tissue culture-treated plastic plates (Corning BV) were coated directly with ligand. Coverslips or dishes were coated for 2 hours at room temperature with 10 μg/ml 50K, H/0, PLL or mab13 in Dulbecco's PBS containing calcium and magnesium (Lonza), and blocked with 10 mg/ml heat-denatured BSA for 30 minutes at room temperature (Humphries et al., 1986). Equivalent ligand-coating between glass and plastic was tested by ELISA using the anti-fibronectin mAb 333 (Bass et al., 2007a). To prevent de novo synthesis of ECM and other syndecan-4 ligands, cells were treated with 25 μg/ml cycloheximide (Sigma) for 2 hours prior to detachment (Couchman et al., 1983) and were then detached with 0.5 mg/ml trypsin. […] Images were compiled and analyzed using ImageJ software. The total area of adhesion complexes per cell was calculated by recording the area of fluorescence intensity above an empirically determined threshold, following rolling ball background subtraction. […]

[3] = tested on: Rac1; test: GTPase activation assay: Rac1 effector pull-down with quantitative Western blotting; assay type: cell-based, mouse; conditions: 200 nM BIM, 30 min before and throughout stimulation; MEFs prespread on 50K
Description: as §1

| staining of K562 lymphocytes with 12G10 (β1 integrin activation epitope) [1] | Structure (SMILES) | effect on focal adhesion formation in response to H/0 [2] | effect on ultrasound-induced Rac1 activation [3] |
| --- | --- | --- | --- |
| enhanced | [Cl][Mn][Cl] [Mn^2+, MnCl2] |  |  |
|  | CN(C)CCCn1cc(C2=C(c3c[nH]c4ccccc34)C(=O)NC2=O)c2ccccc21 [BIM, bisindolylmaleimide I] | blocked focal adhesion formation in response to H/0 | did not prevent ultrasound-induced Rac1 activation |

— patent US20090216158A1, “ULTRASOUND AND TISSUE REPAIR” (priority 2008, published 2009)
